Patent EP4752152A1, “STEROID COMPOUND, AND PREPARATION METHOD THEREFOR AND USE THEREOF” (Cholesgen (Shanghai) Co.Ltd., priority 2023, dated 2025)

Test system: SREBP pathway
Test: SREBP luciferase reporter gene system (SRE-luciferase assay)
Type: cell-based, human
Conditions: Huh-7/SRE-luc cells, sterol-deficient medium, 0.01-10 µM
Method: Huh-7/SRE-luc cells were incubated in sterol-deficient medium (5% lipoprotein deficient serum, 2 µM lovastatin, 10 µM mevalonic acid) with corresponding concentrations of compounds for 16 hours. The Huh-7/SRE-luc cells were human hepatoma cell line Huh-7 stably expressing LDLR promotor-luciferase and green fluorescent protein (GFP). These cells were obtained by transfecting Huh-7 with pLDLR-promotor-luciferase and pEGFP-N1 plasmids, followed by screening under G418 antibiotic selection pressure. The Huh-7 cells were purchased from ATCC, the pLDLR-promotor-luciferase plasmid was obtained by molecular cloning methods, and the pEGFP-N1 plasmid was purchased from Addgene.
After compound treatment, the cells were lysed with lysis buffer (E397A, Promega). After the addition of luciferase substrate (E1500, Promega), the activity of SRE-driven luciferase was measured using a BioTek Synergy HTX microplate reader (including but not limited to this type of instrument). The fluorescence intensity of green fluorescent protein (EGFP) was also measured using the above BioTek microplate reader (including but not limited to this type of instrument) and served as an internal control. The ratio of SRE-driven luciferase activity divided by the fluorescence intensity of green fluorescent protein was used as an indicator of SREBP pathway activity. The test data for each test compound were analyzed using Prism software (with the DMSO-treated group as the reference to calculate the compound inhibition rate, fitted using the Prism log(inhibitor) vs. response--Variable slope (four-parameter) model, calculation formula: Y = Bottom + (Top - Bottom)/(1 + 10^((LogIC50 - X) × HillSlope))), to obtain the IC50 parameters of the compounds.
Using the method described in 1.1, the inhibitory effect of the compounds of the present disclosure on the SREBP pathway was tested. The concentration gradient for each compound was designed as 0.01, 0.03, 0.1, 0.3, 1.0, 3.0, and 10 µM, with the vehicle DMSO as the control.

Row | Structure (SMILES) | IC50 (Homo sapiens, Huh-7, 16 h) [µM] | IC50 (16 hours) [µM]
1 | C[C@H](CCCC(O)c1cccc2c1nnn2C)[C@H]1CC[C@H]2[C@H]3[C@H](CC[C@]12C)[C@@]1(C)CC[C@H](O)[C@H](O)[C@@H]1CC3(F)F (single isomer, unassigned) [Compound 290, (1R,3aS,3bS,5aR,6R,7S,9aR,9bS,11aR)-4,4-difluoro-1-[(2R,6S)-6-hydroxy-6-(1-methylbenzo[d][1,2,3]triazol-4-yl)hexan-2-yl]-9a,11a-dimethylhexadecahydro-1H-cyclopenta[1,2-a]phenanthrene-6,7-diol or (1R,3aS,3bS,5aR,6R,7S,9aR,9bS,11aR)-4,4-difluoro-1-[(2R,6R)-6-hydroxy-6-(1-methylbenzo[d][1,2,3]triazol-4-yl)hexan-2-yl]-9a,11a-dimethylhexadecahydro-1H-cyclopenta[1,2-a]phenanthrene-6,7-diol] | 0.137 | 
2 | C[C@H](CCC[C@H](O)c1ncc(F)cc1F)[C@H]1CC[C@H]2[C@H]3[C@H](CC[C@]12C)[C@@]1(C)CC[C@H](O)[C@H](O)[C@@H]1CC3(F)F (single isomer, unassigned) [Compound 279] | 0.202 | 
3 | COc1cc(Cl)ccc1[C@@H](O)CCC[C@@H](C)[C@H]1CC[C@H]2[C@H]3[C@H](CC[C@]12C)[C@@]1(C)CC[C@H](O)[C@H](O)[C@@H]1CC3(F)F [Compound 112, (1R,3aS,3bS,5aR,6R,7S,9aR,9bS,11aR)-1-[(2R,6S)-6-(4-chloro-2-methoxyphenyl)-6-hydroxyhexan-2-yl]-4,4-difluoro-9a,11a-dimethylhexadecahydro-1H-cyclopenta[1,2-a]phenanthrene-6,7-diol] | 0.318 | 
4 | C[C@H](CCCC(O)c1[nH]ncc1F)[C@H]1CC[C@H]2[C@H]3[C@H](CC[C@]12C)[C@@]1(C)CC[C@H](O)[C@H](O)[C@@H]1CC3(F)F (stereo partly drawn) [Compound 237, (1R,3aS,3bS,5aR,6R,7S,9aR,9bS,11aR)-4,4-difluoro-1-[(2R)-6-(4-fluoro-2H-pyrazol-3-yl)-6-hydroxyhexan-2-yl]-9a,11a-dimethylhexadecahydro-1H-cyclopenta[1,2-a]phenanthrene-6,7-diol] | 0.726 | 
5 | COc1nc(F)ccc1[C@@H](O)CCC[C@@H](C)[C@H]1CC[C@H]2[C@H]3[C@H](CC[C@]12C)[C@@]1(C)CC[C@H](O)C[C@@H]1CC3(F)F [Compound 312, (1R,3aS,3bR,5aR,7S,9aS,9bS,11aR)-4,4-difluoro-1-[(2R,6S)-6-(6-fluoro-2-methoxypyridin-3-yl)-6-hydroxyhexan-2-yl]-9a,11a-dimethylhexadecahydro-1H-cyclopenta[1,2-a]phenanthren-7-ol] | 0.276 | 
6 | COc1ccnc(F)c1[C@@H](O)CCC[C@@H](C)[C@H]1CC[C@H]2[C@H]3[C@H](CC[C@]12C)[C@@]1(C)CC[C@H](O)[C@H](O)[C@@H]1CC3(F)F (single isomer, unassigned) [Compound 229] | 0.049 | 
7 | C[C@H](CCCC(O)c1nccs1)[C@H]1CC[C@H]2C3=C(F)C[C@H]4[C@@H](O)[C@@H](O)CC[C@]4(C)[C@H]3CC[C@]12C (stereo partly drawn) [Compound 90, (1R,3aR,5aR,6R,7S,9aR,9bR,11aR)-4-fluoro-1-[(2R)-6-hydroxy-6-(1,3-thiazol-2-yl)hexan-2-yl]-9a,11a-dimethyl-2,3,3a,5,5a,6,7,8,9,9a,9b,10,11,11a-tetradecahydro-1H-cyclopenta[1,2-a]phenanthrene-6,7-diol] | 0.379 | 
8 | COc1cc(F)ccc1C(N)CCC[C@@H](C)[C@H]1CC[C@H]2[C@H]3[C@H](CC[C@]12C)[C@@]1(C)CC[C@H](O)[C@H](O)[C@@H]1CC3(F)F (stereo partly drawn) [Compound 156, (1R,3aS,3bS,5aR,6R,7S,9aR,9bS,11aR)-1-[(2R)-6-amino-6-(4-fluoro-2-methoxyphenyl)hexan-2-yl]-4,4-difluoro-9a,11a-dimethylhexadecahydro-1H-cyclopenta[1,2-a]phenanthrene-6,7-diol] | 1.32 | 
9 | COc1ccnc(C[C@H](O)CCC[C@@H](C)[C@H]2CC[C@H]3[C@H]4[C@H](CC[C@]23C)[C@@]2(C)CC[C@H](O)[C@H](O)[C@@H]2CC4(F)F)c1 (stereo in doubt) [Compound 305, (1R,3aS,3bS,5aR,6R,7S,9aR,9bS,11aR)-4,4-difluoro-1-[(2R,6R)-6-hydroxy-7-(4-methoxypyridin-2-yl)heptan-2-yl]-9a,11a-dimethylhexadecahydro-1H-cyclopenta[1,2-a]phenanthrene-6,7-diol] | 0.253 | 
10 | C[C@H](CCCC(O)c1cncc2c1cnn2C)[C@H]1CC[C@H]2[C@H]3[C@H](CC[C@]12C)[C@@]1(C)CC[C@H](O)[C@H](O)[C@@H]1CC3(F)F (single isomer, unassigned) [Compound 287, (1R,3aS,3bS,5aR,6R,7S,9aR,9bS,11aR)-4,4-difluoro-1-[(2R,6S)-6-hydroxy-6-(1-methylpyrazolo[3,4-c]pyridin-4-yl)hexan-2-yl]-9a,11a-dimethylhexadecahydro-1H-cyclopenta[1,2-a]phenanthrene-6,7-diol or (1R,3aS,3bS,5aR,6R,7S,9aR,9bS,11aR)-4,4-difluoro-1-[(2R,6R)-6-hydroxy-6-(1-methylpyrazolo[3,4-c]pyridin-4-yl)hexan-2-yl]-9a,11a-dimethylhexadecahydro-1H-cyclopenta[1,2-a]phenanthrene-6,7-diol] |  | 0.131
11 | C[C@H](CCC[C@@H](O)c1nn(C)c2ccccc12)[C@H]1CC[C@H]2[C@H]3[C@H](CC[C@]12C)[C@@]1(C)CC[C@H](O)[C@H](O)[C@@H]1CC3(F)F [Compound 324, (1R,3aS,3bS,5aR,6R,7S,9aR,9bS,11aR)-4,4-difluoro-1-[(2R,6R)-6-hydroxy-6-(1-methylindazol-3-yl)hexan-2-yl]-9a,11a-dimethylhexadecahydro-1H-cyclopenta[1,2-a]phenanthrene-6,7-diol] | 1.51 | 
12 | C[C@H](CCC[C@@H](O)c1cc2ccccc2o1)[C@H]1CC[C@H]2[C@H]3[C@H](CC[C@]12C)[C@@]1(C)CC[C@H](O)[C@H](O)[C@@H]1CC3(F)F [Compound 322, (1R,3aS,3bS,5aR,6R,7S,9aR,9bS,11aR)-1-[(2R,6R)-6-(1-benzofuran-2-yl)-6-hydroxyhexan-2-yl]-4,4-difluoro-9a,11a-dimethylhexadecahydro-1H-cyclopenta[1,2-a]phenanthrene-6,7-diol] |  | 0.339
13 | C[C@H](CCCC(O)c1ccc(F)nc1F)[C@H]1CC[C@H]2[C@H]3[C@H](CC[C@]12C)[C@@]1(C)CC[C@H](O)[C@H](O)[C@@H]1CC3(F)F (single isomer, unassigned) [Compound 226, (1R,3aS,3bS,5aR,6R,7S,9aR,9bS,11aR)-1-[(2R,6S)-6-(2,6-difluoropyridin-3-yl)-6-hydroxyhexan-2-yl]-4,4-difluoro-9a,11a-dimethylhexadecahydro-1H-cyclopenta[1,2-a]phenanthrene-6,7-diol or (1R,3aS,3bS,5aR,6R,7S,9aR,9bS,11aR)-1-[(2R,6R)-6-(2,6-difluoropyridin-3-yl)-6-hydroxyhexan-2-yl]-4,4-difluoro-9a,11a-dimethylhexadecahydro-1H-cyclopenta[1,2-a]phenanthrene-6,7-diol] |  | 0.1
14 | COc1cc(F)cc(F)c1[C@H](O)CCC[C@@H](C)[C@H]1CC[C@H]2C3=C(F)C[C@H]4[C@@H](O)[C@@H](O)CC[C@]4(C)[C@H]3CC[C@]12C (single isomer, unassigned) [Compound 203] | 0.174 | 
15 | COc1cc(F)ccc1[C@H](O)CCC[C@@H](C)[C@H]1CC[C@H]2C3=C(F)C[C@H]4[C@@H](O)[C@@H](O)CC[C@]4(C)[C@H]3CC[C@]12C [Compound 132, (1R,3aR,5aR,6R,7S,9aR,9bR,11aR)-4-fluoro-1-[(2R,6R)-6-(4-fluoro-2-methoxyphenyl)-6-hydroxyhexan-2-yl]-9a,11a-dimethyl-2,3,3a,5,5a,6,7,8,9,9a,9b,10,11,11a-tetradecahydro-1H-cyclopenta[1,2-a]phenanthrene-6,7-diol] | 0.096 | 
16 | C[C@H](CCCC(O)c1cccc(OC(F)(F)F)c1)[C@H]1CC[C@H]2[C@H]3[C@H](CC[C@]12C)[C@@]1(C)CC[C@H](O)[C@H](O)[C@@H]1CC3(F)F (single isomer, unassigned) [Compound 190, (1R,3aS,3bS,5aR,6R,7S,9aR,9bS,11aR)-4,4-difluoro-1-[(2R,6S)-6-hydroxy-6-{^3-[(trifluoromethyl)oxy]phenyl}hexan-2-yl]-9a,11a-dimethylhexadecahydro-1H-cyclopenta[1,2-a]phenanthrene-6,7-diol or (1R,3aS,3bS,5aR,6R,7S,9aR,9bS,11aR)-4,4-difluoro-1-[(2R,6R)-6-hydroxy-6-{3-[(trifluoromethyl)oxy]phenyl}hexan-2-yl]-9a,11a-dimethylhexadecahydro-1H-cyclopenta[1,2-a]phenanthrene-6,7-diol] | 0.355 | 
